Measurements taken from patent US20240158392A1 (Janssen Biotech, Inc., priority 2021, published 2024).

Target: SIK2 (Homo sapiens, UniProt Q9H0K1)
Experiment: SIK2 Enzymatic Assay High Version 2 (High ATP)
Type: biochemical
Conditions: not given
In short: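 At room temperature, enzyme (6 nM, 2× final) was preincubated with compound for 30 min, then 6 mM ATP and 400 μM HDAC5tide (both 2× final) were added for 2 h. ADP formed was measured by ADP-Glo Max (2 h reagent, 1 h detection) using luminescence.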

Sequence of SIK2 (Q9H0K1 whole entry, species assumed): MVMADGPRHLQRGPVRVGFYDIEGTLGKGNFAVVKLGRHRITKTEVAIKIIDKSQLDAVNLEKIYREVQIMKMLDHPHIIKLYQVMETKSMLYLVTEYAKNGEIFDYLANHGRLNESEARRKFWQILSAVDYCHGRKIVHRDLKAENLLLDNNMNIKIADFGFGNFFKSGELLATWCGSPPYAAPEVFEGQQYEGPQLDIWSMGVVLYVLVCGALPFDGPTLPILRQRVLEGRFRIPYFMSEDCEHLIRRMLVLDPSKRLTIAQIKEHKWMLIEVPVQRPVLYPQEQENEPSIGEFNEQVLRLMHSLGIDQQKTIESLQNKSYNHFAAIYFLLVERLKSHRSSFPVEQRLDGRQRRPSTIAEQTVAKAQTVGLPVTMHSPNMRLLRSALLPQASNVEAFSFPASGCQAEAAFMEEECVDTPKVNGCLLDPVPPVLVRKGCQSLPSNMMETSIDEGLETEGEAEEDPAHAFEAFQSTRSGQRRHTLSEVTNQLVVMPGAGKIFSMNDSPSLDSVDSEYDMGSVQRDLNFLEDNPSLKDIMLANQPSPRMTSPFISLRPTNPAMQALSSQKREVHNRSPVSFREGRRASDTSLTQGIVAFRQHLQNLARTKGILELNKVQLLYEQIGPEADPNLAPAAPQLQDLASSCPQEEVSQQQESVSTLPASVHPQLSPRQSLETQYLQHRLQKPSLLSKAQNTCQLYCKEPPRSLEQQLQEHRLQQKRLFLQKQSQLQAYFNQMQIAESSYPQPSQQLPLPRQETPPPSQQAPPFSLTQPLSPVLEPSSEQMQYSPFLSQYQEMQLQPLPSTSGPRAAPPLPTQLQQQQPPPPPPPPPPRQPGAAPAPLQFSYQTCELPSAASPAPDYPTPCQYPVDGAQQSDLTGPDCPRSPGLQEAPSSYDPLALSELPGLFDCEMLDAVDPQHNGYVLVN

SMILES | IC50 [µM]
Cc1cc(-c2ccn3nc(Nc4cnn(C)c4)cc3c2)c(O[C@H]2C[C@H]3COC[C@@H](C2)N3)cn1 [Example 123, 7-endo-5-[2-methyl-5-[[(1S,5R)-3-oxa-9-azabicyclo[3.3.1]nonan-7-yl]oxy]-4-pyridyl]-N-(1-methylpyrazol-4-yl)pyrazolo[1,5-a]pyridin-2-amine] | 0.00094
Cc1cc(-c2ccn3nc(Nc4cnn(C)c4)cc3c2)c(O[C@H]2C[C@H]3COC[C@@H](C2)N3C)cn1 [Example 124] | 0.00124
Cc1cc(-c2ccn3nc(Nc4ccn(C)n4)cc3c2)c(O[C@H]2C[C@H]3COC[C@@H](C2)N3)cn1 [Example 125, endo-5-(5-(((1R,5S,7s)-3-oxa-9-azabicyclo[3.3.1]nonan-7-yl)oxy)-2-methylpyridin-4-yl)-N-(1-methyl-1H-pyrazol-3-yl)pyrazolo[1,5-a]pyridin-2-amine] | < 0.000847
Cc1cc(-c2ccn3nc(Nc4ccc(F)cn4)cc3c2)c(O[C@H]2C[C@H]3COC[C@@H](C2)N3C)cn1 [Example 126] | < 0.000847
Cc1cc(-c2ccn3nc(Nc4ccc(F)cn4)cc3c2)c(O[C@H]2C[C@H]3COC[C@@H](C2)N3)cn1 [Example 127, 5-(5-(((1R,5S,7s)-3-oxa-9-azabicyclo[3.3.1]nonan-7-yl)oxy)-2-methylpyridin-4-yl)-N-(5-fluoropyridin-2-yl)pyrazolo[1,5-a]pyridin-2-amine] | < 0.000847
Cc1cc(-c2ccn3nc(Nc4ccccn4)cc3c2)c(OC[C@@H]2CNCCO2)cn1 [Example 130, 5-[2-methyl-5-[[(2S)-morpholin-2-yl]methoxy]-4-pyridyl]-N-(2-pyridyl)pyrazolo[1,5-a]pyridin-2-amine] | 0.00429
CCN1[C@@H]2COC[C@H]1C[C@@H](Oc1cnc(C)cc1-c1ccn3nc(NC(=O)C4CC4)cc3c1)C2 [Example 161, 7-endo-N-(5-(5-(((1R,5S,7s)-9-ethyl-3-oxa-9-azabicyclo[3.3.1]nonan-7-yl)oxy)-2-methylpyridin-4-yl)pyrazolo[1,5-a]pyridin-2-yl)cyclopropanecarboxamide] | < 0.000847
Cc1cc(-c2ccn3nc(NC(=O)C4CC4)cc3c2)c(O[C@H]2[C@@H]3CN(C)[C@H]2CO3)cn1 [Example 164, N-(5-(2-methyl-5-(((1S,4S,7R)-5-methyl-2-oxa-5-azabicyclo[2.2.1]heptan-7-yl)oxy)pyridin-4-yl)pyrazolo[1,5-a]pyridin-2-yl)cyclopropanecarboxamide] | 0.218
Cc1cc(-c2ccn3nc(NC(=O)C4CC4)cc3c2)c(O[C@@H]2[C@@H]3CO[C@H]2CN3)cn1 [Example 165, N-(5-(5-(((1S,4S,7R)-2-oxa-5-azabicyclo[2.2.1]heptan-7-yl)oxy)-2-methylpyridin-4-yl)pyrazolo[1,5-a]pyridin-2-yl)cyclopropanecarboxamide] | 0.00823
CNC(=O)c1ccnc(Nc2cc3cc(-c4cc(C)ncc4O[C@H]4C[C@H]5COC[C@@H](C4)N5)ccn3n2)c1 [Example 172, 2-((5-(5-(((1R,5S,7s)-3-oxa-9-azabicyclo[3.3.1]nonan-7-yl)oxy)-2-methylpyridin-4-yl)pyrazolo[1,5-a]pyridin-2-yl)amino)-N-methylisonicotinamide] | 0.000876
CNC(=O)c1ccc(Nc2cc3cc(-c4cc(C)ncc4O[C@H]4C[C@H]5COC[C@@H](C4)N5)ccn3n2)nc1 [Example 173, 6-((5-(5-(((1R,5S,7s)-3-oxa-9-azabicyclo[3.3.1]nonan-7-yl)oxy)-2-methylpyridin-4-yl)pyrazolo[1,5-a]pyridin-2-yl)amino)-N-methylnicotinamide] | < 0.000847
Cc1cc(-c2ccn3nc(Nc4cc(C(F)(F)F)nn4C)cc3c2)c(O[C@H]2C[C@H]3COC[C@@H](C2)N3C)cn1 [Example 174, N-(1-methyl-3-(trifluoromethyl)-1H-pyrazol-5-yl)-5-(2-methyl-5-(((1R,5S,7s)-9-methyl-3-oxa-9-azabicyclo[3.3.1]nonan-7-yl)oxy)pyridin-4-yl)pyrazolo[1,5-a]pyridin-2-amine] | 0.108

Same assay, conditions: enzyme 6 nM, 6 mM ATP and 400 μM HDAC5tide (each 2× final concentration); 30 minutes pre-incubation, 2 hours; ADP-Glo Max luminescence; read-out: SIK2 high ATP IC50 (μM) (Test Example 2)

IC50 [µM] | SMILES
0.0249 | Cc1cc(-c2ccn3nc(Nc4cnn(C)c4)cc3c2)c(OC[C@@H]2CNCCO2)cn1 [Example 128, 5-[2-methyl-5-[[(2S)-morpholin-2-yl]methoxy]-4-pyridyl]-N-(1-methylpyrazol-4-yl)pyrazolo[1,5-a]pyridin-2-amine]
0.0524 | Cc1cc(-c2ccn3nc(Nc4cccnc4)cc3c2)c(OC[C@@H]2CNCCO2)cn1 [Example 131, 5-[2-methyl-5-[[(2S)-morpholin-2-yl]methoxy]-4-pyridyl]-N-(3-pyridyl)pyrazolo[1,5-a]pyridin-2-amine]
0.00951 | Cc1cc(-c2ccn3nc(Nc4ccncn4)cc3c2)c(OC[C@@H]2CNCCO2)cn1 [Example 132, 5-[2-methyl-5-[[(2S)-morpholin-2-yl]methoxy]-4-pyridyl]-N-pyrimidin-4-yl-pyrazolo[1,5-a]pyridin-2-amine]
0.0128 | Cc1cc(-c2ccn3nc(Nc4cccnn4)cc3c2)c(OC[C@@H]2CNCCO2)cn1 [Example 134, 5-[2-methyl-5-[[(2S)-morpholin-2-yl]methoxy]-4-pyridyl]-N-pyridazin-3-yl-pyrazolo[1,5-a]pyridin-2-amine]
0.00378 | Cc1cc(-c2ccn3nc(NC(=O)C4CC4)cc3c2)c(O[C@H]2CC[C@](C)(O)CC2)cn1 [Example 151, trans-N-(5-(5-(((1r,4r)-4-hydroxy-4-methylcyclohexyl)oxy)-2-methylpyridin-4-yl)pyrazolo[1,5-a]pyridin-2-yl)cyclopropanecarboxamide]
0.0708 | Cc1cc(-c2ccn3nc(NC(=O)C4CC4)cc3c2)c(OCC2(NC3CC3)CCC2)cn1 [Example 157, N-[5-[5-[[1-(cyclopropylamino)cyclobutyl]methoxy]-2-methyl-4-pyridyl]pyrazolo[1,5-a]pyridin-2-yl]cyclopropanecarboxamide]
0.0196 | Cc1cc(-c2ccn3nc(Nc4ccn(C)n4)cc3c2)c(OCC2(N)CC(F)(F)C2)cn1 [Example 162, 5-[5-[(1-amino-3,3-difluoro-cyclobutyl)methoxy]-2-methyl-4-pyridyl]-N-(1-methylpyrazol-3-yl)pyrazolo[1,5-a]pyridin-2-amine]
0.00795 | Cc1cc(-c2ccn3nc(Nc4cnn(C)c4)cc3c2)c(O[C@H]2CC[C@](C)(O)CC2)cn1 [Example 163, (1r,4r)-1-methyl-4-((6-methyl-4-(2-((1-methyl-1H-pyrazol-4-yl)amino)pyrazolo[1,5-a]pyridin-5-yl)pyridin-3-yl)oxy)cyclohexan-1-ol]
0.0164 | Cc1cc(-c2ccn3nc(NC(=O)C4CC4)cc3c2)c(OC2CCC(=O)CC2)cn1 [Example 186, N-[5-[2-methyl-5-(4-oxocyclohexoxy)-4-pyridyl]pyrazolo[1,5-a]pyridin-2-yl]cyclopropanecarboxamide]
0.00407 | CC#Cc1cc(-c2ccn3nc(Nc4ccn(C)n4)cc3c2)c(O[C@H]2CC[C@H](O)CC2)cn1 [Example 187, trans-4-[[4-[2-[(1-methylpyrazol-3-yl)amino]pyrazolo[1,5-a]pyridin-5-yl]-6-prop-1-ynyl-3-pyridyl]oxy]cyclohexanol]
0.00251 | Cc1cc(-c2ccn3nc(NC(=O)C4CC4)cc3c2)c(O[C@H]2CC[C@@](O)(C(F)(F)F)CC2)cn1 [Example 191, N-(5-(5-(((1r,4r)-4-hydroxy-4-(trifluoromethyl)cyclohexyl)oxy)-2-methylpyridin-4-yl)pyrazolo[1,5-a]pyridin-2-yl)cyclopropanecarboxamide]
0.0612 | Cc1cc(-c2ccn3nc(NC(=O)C4CC4)cc3c2)c(O[C@H]2CC[C@@](O)(c3ccccc3)CC2)cn1 [Example 192, N-(5-(5-(((1r,1r)-4-hydroxy-4-phenylcyclohexyl)oxy)-2-methylpyridin-4-yl)pyrazolo[1,5-a]pyridin-2-yl)cyclopropanecarboxamide]
0.00247 | Cc1cc(-c2ccn3nc(NC(=O)C4CC4)cc3c2)c(OC2CCC(O)(C(C)C)CC2)cn1 (stereo not shown) [Example 196]
0.00877 | Cc1cc(-c2ccn3nc(Nc4cc(C)nc(C)n4)cc3c2)c(O[C@H]2CC[C@H](O)CC2)cn1 [Example 198, trans-4-[[4-[2-[(2,6-dimethylpyrimidin-4-yl)amino]pyrazolo[1,5-a]pyridin-5-yl]-6-methyl-3-pyridyl]oxy]cyclohexanol]
0.0502 | Cc1cc(-c2ccn3nc(NC(=O)C4CC4)cc3c2)c(OC2CCC(=NO)CC2)cn1 (stereo not shown) [Example 199, N-[5-[5-(4-hydroxyiminocyclohexoxy)-2-methyl-4-pyridyl]pyrazolo[1,5-a]pyridin-2-yl]cyclopropanecarboxamide]

Second part, the compound before the results:

SMILES | IC50 [µM]
Cc1cc(-c2ccn3nc(Nc4cnn(C(C)C)c4)cc3c2)c(OC[C@@H]2CNCCO2)cn1 [Example 133, N-(1-isopropylpyrazol-4-yl)-5-[2-methyl-5-[[(2S)-morpholin-2-yl]methoxy]-4-pyridyl]pyrazolo[1,5-a]pyridin-2-amine] | 0.00845
Cc1cc(-c2ccn3nc(Nc4ccn(C(C)C)n4)cc3c2)c(OC[C@@H]2CNCCO2)cn1 [Example 135, N-(1-isopropylpyrazol-3-yl)-5-[2-methyl-5-[[(2S)-morpholin-2-yl]methoxy]-4-pyridyl]pyrazolo[1,5-a]pyridin-2-amine] | 0.00986
Cc1cc(-c2ccn3nc(Nc4cc(C)nc(C)n4)cc3c2)c(OCC(C)(C)O)cn1 [Example 200, 1-[[4-[2-[(2,6-dimethylpyrimidin-4-yl)amino]pyrazolo[1,5-a]pyridin-5-yl]-6-methyl-3-pyridyl]oxy]-2-methyl-propan-2-ol] | 0.0445
Cc1cc(-c2ccn3nc(Nc4cc(C)c(C)nn4)cc3c2)c(OCC(C)(C)O)cn1 [Example 201, 1-[[4-[2-[(5,6-dimethylpyridazin-3-yl)amino]pyrazolo[1,5-a]pyridin-5-yl]-6-methyl-3-pyridyl]oxy]-2-methyl-propan-2-ol] | 0.0641
